Like-named read-outs stand apart in the source and are kept apart here.
Assays:
[1] = test system: VDR; experiment: VDR gene expression by qPCR in U-937 human monocytic cells treated with curcumins plus Aβ; assay type: cell-based
Description: Cell culture conditions for monocytic cell lines. Human and mouse monocyte cell lines are grown in RPMI-1640 medium with 10% fetal bovine serum (FBS), plus glutamine and pen/strep. For treatment with compounds (curcuminoids+/−Aβ), replicate sets of 0.5-1.0 mL cultures containing 1-2×10^6 cells are set up in the wells of 48-well tissue culture plates. Both replicate sets have at least one control well receiving no added curcuminoid to provide baseline expression controls for untreated, and Aβ-only treated cells. Remaining wells receive curcuminoid in a range of 10-fold serial dilutions in DMSO, typically from […] Cultures are incubated for 20-24 hours (“overnight”) at 37° C. in atmosphere with 5% CO2. After one overnight, to one of replicate sets of cultures is added Aβ (1-42) peptide to a final concentration of 5 μg/mL.
RNA isolation and cDNA synthesis. After the first overnight incubation in the presence of curcuminoid, cells from one replicate set of wells are collected by centifugation. RNAs are extracted from pelleted cells using miniprep column kits following manufacturer's protocol for animal cells. […] of total cellular RNA from each well is quantitated using a Nanodrop spectrophotometer, and first-strand total cDNA is prepared from 0.3-1.0 μg RNA by random-hexamer priming. Following the second 20 hr. incubation in the presence of Aβ, RNA extractions and cDNA synthesis are similarly performed.
Assay development. Gene-specific mRNA levels are determined using a real-time thermocycler, and by normalizing to expression of one or more control genes. Assays for quantifying mRNA levels are based on gene sequences reported in NCBI Genbank. PCR oligonucleotide primers are selected spanning introns to minimize the opportunity for amplication from any contaminating genomic DNA in the RNA preps. Oligonucleotides are typically tested and used at a concentration of 200 nM in qPCR reactions containing SYBR dye. Control reactions include template from cDNA synthesis reactions either + or − reverse transcriptase (RT), as well as no-template controls (ntc). All reactions are performed in triplicate. Reactions are typically run with 40 cycles of 95° C. (10 sec) and 58° C. (30 sec). Melt curves based on incremental 0.5° C. increases are determined for new assays to test for uniformity of amplified products. Reaction conditions are modified as needed depending on initial test results. ‘Working’ assays are selected based on clear RNA-dependent amplification and absence of product in ‘ntc’ reactions. The following assay primers are used: […]
(§1) qPCR reactions of cultured monocyte cDNAs. One μL total cellular cDNA per reaction is used in triplicate reactions for each test gene, and for each culture treatment. SYBR-Green reactions were run on a Continuous Fluorescence real-time thermocycler and analyzed. Cycle threshold (Ct) values are recorded for each replicate reaction, and are then averaged and normalized against mean Ct values from one or more control genes. Fold-expression differences relative to untreated cells are determined using the 2^−ΔΔCt method as previously described. Data from the curcumin concentration range are plotted in order to determine EC50 values (concentrations producing one-half maximal stimulant activity), which are used for comparisons of potency between different compounds. Data are also evaluated for each gene with regard to sensitivity, maximally effective concentration of curcuminoid, response to Aβ, and overall magnitude of fold-expression changes.
Data showing in vitro up-regulation of genes associated with Aβ phagocytosis in response to curcumins. Natural curcumins and synthetic analogs were tested in U-937 human monocyte cells in vitro for their ability to modulate expression of the genes MGAT3 and TLRs −2, −3, and −4. […]

[2] = Chemical stability (H2O, pH 7.4); assay type: physicochemical
[3] = test system: TLR 2; experiment: TLR 2 transcription ratio, AD patient / control PBMCs (qPCR); assay type: cell-based, human; conditions: Aβ stimulation
Description: as §1
MGAT3 and/or TLR transcription were tested by qPCR in human monocyte cells treated with curcuminoids and compared the results to those treated with vehicle (Table 7). As discussed above, activation or up-regulation of macrophage MGAT3 or TLR's results in many functional outcomes, including the enhancement of […] and removal of Aβ, increased apoptosis, secretion of inflammatory cytokines, and other anti-AD antimicrobial activities. […] Thus, the ratio of MGAT3 or TLR transcription upon Aβ stimulation of human monocytes versus vehicle treatment provides an indicator and sensitive method to test the in vitro efficacy of drug candidates. […] The relative biological activity of the curcumin analogs in AD patient and control cells was ascertained in the in vitro Aβ assay described above (see Example 2).

[4] = test system: cortical neurons in hAPP-transfected rat brain slices; experiment: Rat brain slice AD model (hAPP-induced neurodegeneration); assay type: cell-based; conditions: rat brain slices transfected with EYFP and hAPP, three concentrations, 72 hrs (FIG. 8)
Text: A rodent brain slice model for AD has been developed where the expression of human APP by particle-mediated gene transfer (“biolistics”) leads to typical signs of neuronal dystrophy, and ultimately the degeneration and clearance of the cell body with a few days. Brain slice preparations offer a powerful experimental system because they preserve the three-dimensional tissue architecture and local environment of neurons and glia far better than dissociated cell culture. As such, drug lead candidates that show neuroprotective activity in brain-tissue based disease models have a much increased ability to predict efficacy in vivo and ultimately in the clinic.
Preparation of Brain Slice Explants. Cd Sprague-Dawley Rat Pups are Used at Postnatal day 10. Brains are cut into 250 μm coronal slices on a vibratome in chilled medium baths. Approximately 6 such slices can be cut from each rat brain; each are divided into “hemi-coronal” slices which are placed in individual 6-well transwell inserts. […]
Assessment of cortical neuron health. […] Representative images are captured using a digital camera on a fluorescence microscope. After 3 days, cortical neurons are scored. […] Statistical significance of the neuronal counts in compound-treated slices is evaluated by ANOVA analysis, followed by post hoc Dunnett's analysis at the p≦0.05 confidence level. […]

O=C(/C=C(O)/C=C/c1ccc(O)cc1)/C=C/c1ccc(O)cc1 [Compound 1, 5-Hydroxy-1,7-bis-(4-hydroxy-phenyl)-hepta-1,4,6-trien-3-one, reference compound]
VDR normalized expression response (in words) ([1]; human monocytes, plus Aβ): modest increases | Relative gene expression VDR, increased expression relative to control cells ([1]; human monocytic cells (U-937), curcumin plus Aβ): + ((+) <20-fold) | half-life ([2]; water (aqueous solution), pH 7.4, read-out: Chemical stability t1/2 pH 7.4 (converted)): 14 min | half-life ([2]; water, H2O, read-out: Chemical stability t1/2 H2O (converted)): 60 min | Relative ratio of TLR 2 transcription in AD patient / control PBMC's [3]: TLR 2 + ((+) indicates a ratio of 1.0-1.5) | Neuroprotective effect against hAPP-induced neurodegeneration [4]: dose-dependent trend for AD related neuroprotection

From US20120040976A1, “SMALL MOLECULE IMMUNOMODULATORS FOR ALZHEIMER'S DISEASE” (HUMAN BIOMOLECULAR RESEARCH INSTITUTE, priority 2008, published 2012)
